Measured values taken from patent publication US7745641B2, “Nitrogen-containing heterocyclic compound” (Kyowa Hakko Kirin Co., Ltd., priority 2005, dated 2010).

Columns and labels:
[1] = system: leukemia-transplant mice; conditions: drugs that act on Flt-3; cited from earlier work
[2] = several evaluation models; drugs reported to act on FGFR; cited from earlier work

Row | melting point [°C] | Compound | antitumor activity [1] | antitumor activity [2]
1 |  | C[C@]12O[C@H](C[C@]1(O)CO)n1c3ccccc3c3c4c(c5c6ccccc6n2c5c31)CNC4=O [CEP-701] | exhibit an antitumor activity | 
2 |  | CN1CCN(c2ccc3nc(-c4c(N)c5c(F)cccc5[nH]c4=O)[nH]c3c2)CC1 [CHIR-258] | exhibit an antitumor activity | exhibit an antitumor activity
3 |  | COc1cc2c(N3CCN(C(=O)Nc4ccc(OC(C)C)cc4)CC3)ncnc2cc1OCCCN1CCCCC1 [CT53518] | exhibit an antitumor activity | 
4 | > 295 | O=C1NCc2c(Cl)ccc(-c3cc4cc(C(=O)N5CCN(c6ccccn6)CC5)ccc4[nH]3)c21 [Compound 107, 4-Chloro-7-{1H-5-[4-(pyridin-2-yl)piperazin-1-ylcarbonyl]indol-2-yl}isoindolinone] |  | 
5 | 255 | O=C1NCc2c(Cl)ccc(-c3cc4cc(C(=O)N5CCN(CCOCCO)CC5)ccc4[nH]3)c21 [Compound 109, 4-Chloro-7-{1H-5-[4-(2-(2-hydroxyethoxy)ethyl)piperazin-1-ylcarbonyl]indol-2-yl}isoindolinone] |  | 
6 | 271 to 272 | CN(C)CCN1CCN(C(=O)c2ccc3[nH]c(-c4ccc(Cl)c5c4C(=O)NC5)cc3c2)CC1 [Compound 112, 4-Chloro-7-{1H-5-[4-(2-dimethylaminoethyl)piperazin-1-ylcarbonyl]indol-2-yl}isoindolinone] |  | 
7 | 196 to 199 | COc1cc(-c2cc3cc(CNC4CCCCC4)ccc3[nH]2)c2c(c1OS(C)(=O)=O)CNC2=O [Compound 365, 4-Methanesulfonyloxy-5-methoxy-7-[1H-5-(cyclohexylaminomethyl)indol-2-yl]isoindolinone] |  | 
8 |  | CCN(CC)CCCCNc1ncc2cc(-c3cc(OC)cc(OC)c3)c(NC(=O)NC(C)(C)C)nc2n1 [PD173074] |  | exhibit an antitumor activity
9 |  | CO[C@@H]1[C@H](N(C)C(=O)c2ccccc2)C[C@H]2O[C@]1(C)n1c3ccccc3c3c4c(c5c6ccccc6n2c5c31)C(=O)NC4 [PKC412] | exhibit an antitumor activity | exhibit an antitumor activity
10 |  | Cc1c[nH]c(/C=C2\C(=O)Nc3ccccc32)c1CCC(=O)O [SU5402] |  | exhibit an antitumor activity
11 |  | CCN(CC)CCNC(=O)c1c(C)[nH]c(/C=C2\C(=O)Nc3ccc(F)cc32)c1C [SU11248] | exhibit an antitumor activity | 
12 |  | BIBF1000 |  | exhibit an antitumor activity
